Measured values published in ChEMBL document CHEMBL3885881, “DrugMatrix”.

Organism: Rattus norvegicus
Test: DrugMatrix - Regimen: Daily Repeat
Assay type: toxicity, organism-based, Sprague-Dawley
Design: regimen Daily Repeat, gender Male, age 6-8 weeks
Settings: in vivo, sc, route subcutaneous, […]; for ABSOLUTE BASOPHIL / ABSOLUTE EOSINOPHIL / ABSOLUTE LYMPHOCYTE / ABSOLUTE MONOCYTE / ABSOLUTE SEGMENTED NEUTROPHIL / BASOPHIL / EOSINOPHIL / ERYTHROCYTE COUNT / HEMATOCRIT / HEMOGLOBIN / LEUKOCYTE COUNT / LYMPHOCYTE / MEAN CORPUSCULAR HEMOGLOBIN / MEAN CORPUSCULAR HEMOGLOBIN CONCENTRATION / MEAN CORPUSCULAR VOLUME / MONOCYTE / NEUTROPHIL / NUCLEATED RED BLOOD CELLS / PLATELET COUNT: tissue Blood; for ALANINE AMINOTRANSFERASE / ALBUMIN / ALKALINE PHOSPHATASE / ASPARTATE AMINOTRANSFERASE / BLOOD UREA NITROGEN / CARBON DIOXIDE / CHLORIDE / CHOLESTEROL / CREATINE PHOSPHOKINASE / CREATININE / GLUCOSE / LACTATE DEHYDROGENASE / LIPASE / PHOSPHORUS / POTASSIUM / SODIUM / TOTAL BILIRUBIN / TOTAL PROTEIN / URIC ACID: tissue Plasma
[1] = 0 mg/kg, 72 h, dose level Control, time 3 day
[2] = 0 mg/kg, 120 h, dose level Control, time 5 day
[3] = 150 mg/kg, 72 h, dose level High, time 3 day

CN(Cc1ccc(C(C)(C)C)cc1)Cc1cccc2ccccc12 [BUTENAFINE]
ABSOLUTE BASOPHIL [1]: 0 CELLS/uL | ABSOLUTE EOSINOPHIL [1]: 0 CELLS/uL | ABSOLUTE LYMPHOCYTE [1]: 10887 CELLS/uL | ABSOLUTE MONOCYTE [1]: 56 CELLS/uL | ABSOLUTE SEGMENTED NEUTROPHIL [1]: 1057 CELLS/uL | BASOPHIL [1]: 0% | EOSINOPHIL [1]: 0% | ERYTHROCYTE COUNT [1]: 5.31 x10E6/uL | HEMATOCRIT [1]: 33.78% | HEMOGLOBIN [1]: 13.4 G/DL | LEUKOCYTE COUNT [1]: 12 x10E3/uL | LYMPHOCYTE [1]: 91.17% | MEAN CORPUSCULAR HEMOGLOBIN [1]: 25.25 pg | MEAN CORPUSCULAR HEMOGLOBIN CONCENTRATION [1]: 39.65 G/DL | MEAN CORPUSCULAR VOLUME [1]: 63.65 fL | MONOCYTE [1]: 0.5% | NEUTROPHIL [1]: 8.33% | NUCLEATED RED BLOOD CELLS [1]: 0 /100WBC | PLATELET COUNT [1]: 1142 x10E3/uL | ALANINE AMINOTRANSFERASE [1]: 57.17 u/L | ALBUMIN [1]: 4.28 G/DL | ALKALINE PHOSPHATASE [1]: 425.83 u/L | ASPARTATE AMINOTRANSFERASE [1]: 93.83 u/L | BLOOD UREA NITROGEN [1]: 14.17 mg/dL | CARBON DIOXIDE [1]: 33.5 mmol/L | CHLORIDE [1]: 100 MEQ/L | CHOLESTEROL [1]: 70.33 mg/dL | CREATINE PHOSPHOKINASE [1]: 438.67 u/L | CREATININE [1]: 0.19 mg/dL | GLUCOSE [1]: 138.5 mg/dL | LACTATE DEHYDROGENASE [1]: 190.17 u/L | LIPASE [1]: 9.83 u/L | PHOSPHORUS [1]: 11.05 mg/dL | POTASSIUM [1]: 6.59 MEQ/L | SODIUM [1]: 143.58 MEQ/L | TOTAL BILIRUBIN [1]: 0.22 mg/dL | TOTAL PROTEIN [1]: 6.15 G/DL | URIC ACID [1]: 1.3 mg/dL | ABSOLUTE BASOPHIL [2]: 0 CELLS/uL | ABSOLUTE EOSINOPHIL [2]: 91.17 CELLS/uL | ABSOLUTE LYMPHOCYTE [2]: 11847.67 CELLS/uL | ABSOLUTE MONOCYTE [2]: 172.83 CELLS/uL | ABSOLUTE SEGMENTED NEUTROPHIL [2]: 1105 CELLS/uL | BASOPHIL [2]: 0% | EOSINOPHIL [2]: 0.67% | ERYTHROCYTE COUNT [2]: 5.35 x10E6/uL | HEMATOCRIT [2]: 33.65% | HEMOGLOBIN [2]: 13.42 G/DL | LEUKOCYTE COUNT [2]: 13.22 x10E3/uL | LYMPHOCYTE [2]: 89.83% | MEAN CORPUSCULAR HEMOGLOBIN [2]: 25.12 pg | MEAN CORPUSCULAR HEMOGLOBIN CONCENTRATION [2]: 39.9 G/DL | MEAN CORPUSCULAR VOLUME [2]: 63 fL | MONOCYTE [2]: 1.33% | NEUTROPHIL [2]: 8.17% | NUCLEATED RED BLOOD CELLS [2]: 0 /100WBC | PLATELET COUNT [2]: 1347.83 x10E3/uL | ALANINE AMINOTRANSFERASE [2]: 50 u/L | ALBUMIN [2]: 4.1 G/DL | ALKALINE PHOSPHATASE [2]: 329.17 u/L | ASPARTATE AMINOTRANSFERASE [2]: 77.17 u/L | BLOOD UREA NITROGEN [2]: 16.83 mg/dL | CARBON DIOXIDE [2]: 34.83 mmol/L | CHLORIDE [2]: 99.83 MEQ/L | CHOLESTEROL [2]: 75.67 mg/dL | CREATINE PHOSPHOKINASE [2]: 295.83 u/L | CREATININE [2]: 0.18 mg/dL | GLUCOSE [2]: 156.33 mg/dL | LACTATE DEHYDROGENASE [2]: 166.83 u/L | LIPASE [2]: 9.83 u/L | PHOSPHORUS [2]: 12.18 mg/dL | POTASSIUM [2]: 6.69 MEQ/L | SODIUM [2]: 143.97 MEQ/L | TOTAL BILIRUBIN [2]: 0.22 mg/dL | TOTAL PROTEIN [2]: 6.05 G/DL | URIC ACID [2]: 1.6 mg/dL | ABSOLUTE BASOPHIL [3]: 0 CELLS/uL | ABSOLUTE EOSINOPHIL [3]: 0 CELLS/uL | ABSOLUTE LYMPHOCYTE [3]: 11405 CELLS/uL | ABSOLUTE MONOCYTE [3]: 88.33 CELLS/uL | ABSOLUTE SEGMENTED NEUTROPHIL [3]: 1473.33 CELLS/uL | BASOPHIL [3]: 0% | EOSINOPHIL [3]: 0% | ERYTHROCYTE COUNT [3]: 5.31 x10E6/uL | HEMATOCRIT [3]: 33.8% | HEMOGLOBIN [3]: 13.6 G/DL | LEUKOCYTE COUNT [3]: 12.97 x10E3/uL | LYMPHOCYTE [3]: 88% | MEAN CORPUSCULAR HEMOGLOBIN [3]: 25.63 pg | MEAN CORPUSCULAR HEMOGLOBIN CONCENTRATION [3]: 40.27 G/DL | MEAN CORPUSCULAR VOLUME [3]: 63.67 fL | MONOCYTE [3]: 0.67% | NEUTROPHIL [3]: 11.33% | NUCLEATED RED BLOOD CELLS [3]: 0 /100WBC | PLATELET COUNT [3]: 1396 x10E3/uL | ALANINE AMINOTRANSFERASE [3]: 55 u/L | ALBUMIN [3]: 3.97 G/DL | ALKALINE PHOSPHATASE [3]: 429.67 u/L | ASPARTATE AMINOTRANSFERASE [3]: 77.33 u/L | BLOOD UREA NITROGEN [3]: 15.67 mg/dL | CARBON DIOXIDE [3]: 31.67 mmol/L | CHLORIDE [3]: 101.67 MEQ/L | CHOLESTEROL [3]: 73 mg/dL | CREATINE PHOSPHOKINASE [3]: 247 u/L | CREATININE [3]: 0.17 mg/dL | GLUCOSE [3]: 147.33 mg/dL | LACTATE DEHYDROGENASE [3]: 229.67 u/L | LIPASE [3]: 9 u/L | PHOSPHORUS [3]: 13.73 mg/dL | POTASSIUM [3]: 6.88 MEQ/L | SODIUM [3]: 145.7 MEQ/L | TOTAL BILIRUBIN [3]: 0.2 mg/dL | TOTAL PROTEIN [3]: 5.73 G/DL | URIC ACID [3]: 1.4 mg/dL
